Assay results reported in patent publication US8003630B2, “Combinatorial therapies for the treatment of neoplasias using the opioid growth factor receptor” (The Penn State Research Foundation, priority 2004, dated 2011).

Columns and labels:
MiaPaCa-2 cells = test: Growth curves of MiaPaCa-2 cells, cell proliferation (MTT) assay, absorbency; conditions: MiaPaCa-2, 5-FU 10^-5 M and/or OGF 10^−6 M
Excerpt: Cells were counted using a standard MTT assay. In general, each data point represents the average absorbency taken from 10 wells/treatment; error bars represent the S.E.M.

MIA PaCa-2 cells = test: Growth assays of MIA PaCa-2 cells (MTS assay or cell counting), Example 7; assay type: cell-based, human; conditions: MIA PaCa-2; 96 hr (48 hr after reversal)
Procedure: MIA PaCa-2 and PANC-1 human pancreatic adenocarcinoma cell lines were purchased from the American Type Culture Collection (Manasass, Va.). MIA PaCa-2 cells were derived from an undifferentiated epithelial carcinoma occurring in the body and tail of the pancreas in a person. The PANC-1 cells were derived from an undifferentiated carcinoma from the head of the pancreas in a person. MIA PaCa-2 and PANC-1 cells were grown in Dulbecco's MEM (modified) media; media was supplemented with 10% fetal calf serum, 1.2% sodium bicarbonate, and antibiotics (5,000 Units/ml penicillin, 5 mg/ml streptomycin, 10 mg/ml neomycin), and the cells were maintained in a humidified atmosphere of 7% CO2/93% air at 37° C.
MIA PaCa-2 cells were seeded at equivalent amounts into either 75 cm^2 flasks, 6-well plates, or 96-well plates (Falcon) and counted 24 hr later to determine plating efficiency. Growth assays for PANC-1 cells were conducted in 6-well plates (Falcon). Compounds or sterile water were added beginning 24 hr after seeding (=0 hr), and both media and compounds were replaced daily. All drugs were prepared in sterile water and dilutions represent final concentrations of the compounds.
Cell number was recorded either by using a mitogenic bioassay, the MTS assay (Cell Titer 96 One Solution, Promega, Madison, Wis.), and measuring absorbency after 4 hr on a Biorad (Model 3550) plate reader at 490 nm, or by counting cells. For manual counts, cells were harvested with a solution of 0.25% trypsin/0.53 mM EDTA, centrif uiged, and counted with a hemacytometer. Cell viability was determined by trypan blue staining. At least two aliquots per flask or 4-10 wells/treatment were counted at each time.

[1] = Plasma levels of OGF by radioimmunoassay, SCC-1 tumor mice; assay type: in vivo, nude mice; conditions: at termination
Procedure: Plasma samples were assayed in duplicate.

SCC-1 cells = test: Necrosis, trypan blue positivity of SCC-1 cells; assay type: cell-based, human; conditions: SCC-1 cultures or supernatants
Procedure: Cell number was recorded either by using the MTS proliferation bioassay (Cell Titer 96 One Solution, Promega, Madison, Wis.) and measuring absorbency after 4 hr on a Biorad (Model 3550) plate reader at 490 nm with a 750 nm background absorbance screening, or by directly counting cells. The MTS assay utilized 10 wells/treatment. For manual counts, cells were harvested by trypsinization with 0.25% trypsin/0.53 mM EDTA, centrif uiged, and counted with a hemacytometer. Cell viability was determined by trypan blue staining. At least two aliquots per well, and 4-10 wells/treatment, were counted at each time for manual counting.

| Compound | decrease in cell number from controls (MiaPaCa-2 cells; 24 h) | decrease in cell number from controls (MiaPaCa-2 cells; 48 h) | decrease in cell number from controls (MiaPaCa-2 cells; 72 h) | decrease in cell number from controls (MiaPaCa-2 cells; 96 h) | difference in cell number between reversal group and group continuing drug exposure (MIA PaCa-2 cells) | OGF levels in plasma versus control mice with tumors [1] | necrosis, number of trypan blue positive cells versus control (SCC-1 cells) |
| --- | --- | --- | --- | --- | --- | --- | --- |
| [Met^5]-enkephalin [OGF] | 7.1% | 7.0% | 6.9% | 14.2% | 16% |  |  |
| CC(=O)O[C@H]1C(=O)[C@@]2(C)[C@H]([C@H](OC(=O)c3ccccc3)[C@]3(O)C[C@H](OC(=O)[C@H](O)[C@@H](NC(=O)c4ccccc4)c4ccccc4)C(C)=C1C3(C)C)[C@]1(OC(C)=O)CO[C@@H]1C[C@@H]2O [paclitaxel] |  |  |  |  |  | No differences | No differences in necrosis |
